Source: ChEMBL document CHEMBL1129853, “Design and biological evaluation of a series of thiophene-based 3-hydroxy-3-methylglutaryl coenzyme a reductase inhibitors” (Bioorg Med Chem Lett, 1997)

How the values were obtained:
[1] = biological target: T1, 3-hydroxy-3-methylglutaryl-coenzyme A reductase (Rattus norvegicus, UniProt P51639); experiment: Tested in vitro for the HMG-CoA reductase inhibitory activity in a microsomal preparation; format: microsomes, Microsome
T1 sequence (P51639 whole entry): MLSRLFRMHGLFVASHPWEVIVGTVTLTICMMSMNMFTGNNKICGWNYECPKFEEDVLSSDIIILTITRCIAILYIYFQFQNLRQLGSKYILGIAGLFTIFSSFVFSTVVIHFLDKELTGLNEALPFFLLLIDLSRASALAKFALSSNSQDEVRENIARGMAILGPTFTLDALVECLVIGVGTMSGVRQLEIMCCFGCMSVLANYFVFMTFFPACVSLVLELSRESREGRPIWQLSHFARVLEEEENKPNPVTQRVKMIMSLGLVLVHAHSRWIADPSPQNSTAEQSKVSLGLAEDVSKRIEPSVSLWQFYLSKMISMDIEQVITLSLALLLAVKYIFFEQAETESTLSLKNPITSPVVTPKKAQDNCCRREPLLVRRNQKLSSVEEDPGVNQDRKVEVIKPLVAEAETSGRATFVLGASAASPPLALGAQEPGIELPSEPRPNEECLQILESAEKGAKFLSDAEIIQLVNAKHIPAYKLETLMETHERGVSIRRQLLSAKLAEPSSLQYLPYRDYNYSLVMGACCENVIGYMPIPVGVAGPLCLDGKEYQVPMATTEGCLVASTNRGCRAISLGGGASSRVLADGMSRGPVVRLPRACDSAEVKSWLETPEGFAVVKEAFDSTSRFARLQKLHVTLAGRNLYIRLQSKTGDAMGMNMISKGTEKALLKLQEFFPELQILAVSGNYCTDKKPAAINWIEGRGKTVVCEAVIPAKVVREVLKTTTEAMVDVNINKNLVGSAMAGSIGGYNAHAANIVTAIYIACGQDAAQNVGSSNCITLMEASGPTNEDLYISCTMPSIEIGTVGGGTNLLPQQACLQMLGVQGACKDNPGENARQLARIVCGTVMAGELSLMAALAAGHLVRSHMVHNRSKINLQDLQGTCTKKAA

[2] = biological target: T2, 3-hydroxy-3-methylglutaryl-coenzyme A reductase (Rattus norvegicus) (UniProt P51639); experiment: Tested in vitro for relative potency against HMG-CoA reductase in a microsomal preparation (relative to compactin =1); format: microsomes; conditions: Microsome
T2 sequence (whole entry): T1 sequence (P51639 whole entry)

[3] = system: Rattus norvegicus; experiment: Tested in vivo for the concentration required to produce 50% inhibition of the incorporation of [14C]acetate into cholesterol; format: functional
[4] = system: Rattus norvegicus; experiment: Tested in vivo for the concentration required to produce relative potency of the incorporation of [14C]acetate into cholesterol (relative to compactin=1); format: functional

IC50 [1] [µM]	Relative potency [2]	Compound	ED50 [3] [mg/kg]	Relative potency [4]
0.233	4.9	CC(C)c1sc(-c2ccccc2)c(-c2ccccc2F)c1/C=C/[C@@H](O)C[C@@H](O)CC(=O)O	–	–
> 10	< 0.1	CCCCCCCCc1c(-c2ccccc2)sc(C(C)C)c1/C=C/[C@@H](O)C[C@@H](O)CC(=O)O	–	–
> 10	< 0.1	CCCCCCCCc1sc(C(C)C)c(/C=C/[C@@H](O)C[C@@H](O)CC(=O)O)c1-c1ccc(F)cc1	–	–
1.15	1	CC[C@H](C)C(=O)O[C@H]1CCC=C2C=C[C@H](C)[C@H](CC[C@@H]3C[C@@H](O)CC(=O)O3)[C@H]21 [MEVASTATIN]	4.02	1
0.202	5.7	CC(C)c1sc(-c2ccccc2)c(C2CCCCC2)c1/C=C/[C@@H](O)C[C@@H](O)CC(=O)[O-].[Na+]	0.57	7.1
1.42	0.8	CC(C)c1sc(-c2ccccc2)c(-c2cccs2)c1/C=C/[C@@H](O)C[C@@H](O)CC(=O)O	–	–
0.021	55	CC(C)c1sc(-c2ccc(Cl)cc2)c(-c2ccc(F)cc2)c1/C=C/[C@@H](O)C[C@@H](O)CC(=O)[O-].[Na+]	0.64	6.3
0.049	23	CC(C)c1sc(-c2ccccc2)c(-c2cccc(F)c2)c1/C=C/[C@@H](O)C[C@@H](O)CC(=O)O	–	–
0.53	2.2	CC[C@H](C)C(=O)O[C@H]1C[C@@H](C)C=C2C=C[C@H](C)[C@H](CC[C@@H]3C[C@@H](O)CC(=O)O3)[C@H]21 [LOVASTATIN]	0.38	11
1	1.2	CC(C)=Cc1c(-c2ccccc2)sc(C(C)C)c1/C=C/[C@@H](O)C[C@@H](O)CC(=O)O	–	–
0.0063	183	COc1ccc(-c2sc(C(C)C)c(/C=C/[C@@H](O)C[C@@H](O)CC(=O)[O-])c2-c2ccc(F)cc2)cc1.[Na+]	0.15	27
> 10	< 0.1	CC(C)c1sc(-c2ccccc2)c(-c2ccc(-c3ccccc3)cc2)c1/C=C/[C@@H](O)C[C@@H](O)CC(=O)O	–	–
0.026	44	CC(C)c1sc(-c2ccccc2)c(-c2ccccc2)c1/C=C/[C@@H](O)C[C@@H](O)CC(=O)[O-].[Na+]	0.17	24
2.98	0.4	CC(C)c1sc(-c2ccccc2)c(-c2cccc(C(F)(F)F)c2)c1/C=C/[C@@H](O)C[C@@H](O)CC(=O)O	–	–
0.417	2.8	CC(C)c1sc(-c2ccccc2)c(C2CCCC2)c1/C=C/[C@@H](O)C[C@@H](O)CC(=O)O	–	–
0.0044	261	CC(C)c1sc(-c2ccccc2)c(-c2ccc(F)cc2)c1/C=C/[C@@H](O)C[C@@H](O)CC(=O)[O-].[Na+]	0.11	37
0.206	5.6	COCCOCc1sc(C(C)C)c(/C=C/[C@@H](O)C[C@@H](O)CC(=O)O)c1-c1ccc(F)cc1	–	–
0.026	44	CC(C)c1sc(C(C)C)c(-c2ccc(F)cc2)c1/C=C/[C@@H](O)C[C@@H](O)CC(=O)[O-].[Na+]	0.08	50
0.57	2	CC(C)c1sc(C2CCCC2)c(-c2ccc(F)cc2)c1/C=C/[C@@H](O)C[C@@H](O)CC(=O)O	–	–
0.015	77	CC(C)=Cc1sc(C(C)C)c(/C=C/[C@@H](O)C[C@@H](O)CC(=O)[O-])c1-c1ccc(F)cc1.[Na+]	0.11	37
2.43	0.5	COc1ccc(-c2c(-c3ccccc3)sc(C(C)C)c2/C=C/[C@@H](O)C[C@@H](O)CC(=O)O)cc1	–	–
0.325	4	CC(C)c1sc(CO)c(-c2ccc(F)cc2)c1/C=C/[C@@H](O)C[C@@H](O)CC(=O)O	–	–
0.0097	119	Cc1ccc(-c2sc(C(C)C)c(/C=C/[C@@H](O)C[C@@H](O)CC(=O)[O-])c2-c2ccc(F)cc2)cc1.[Na+]	0.32	13
0.094	12	Cc1sc(C(C)C)c(/C=C/[C@@H](O)C[C@@H](O)CC(=O)[O-])c1-c1ccccc1.[Na+]	0.19	21
